Measurements reported in ChEMBL document CHEMBL3797176, “Identification of selenocompounds with promising properties to reverse cancer multidrug resistance” (Bioorg Med Chem Lett, 2016).

Experiments:
[1] = biological target: T1, ATP-dependent translocase ABCB1 (Homo sapiens, UniProt P08183); assay: Inhibition of human MDR1 transfected in multi-drug resistant mouse L5178Y cells assessed as fluorescence activity ratio quotient at 2 uM incubated for 10 mins by rhodamine 123 accumulation assay relative to verapamil; type: cell-based; parameters: scale not given: the % may be the effect or the level left
T1 sequence (P08183 whole entry): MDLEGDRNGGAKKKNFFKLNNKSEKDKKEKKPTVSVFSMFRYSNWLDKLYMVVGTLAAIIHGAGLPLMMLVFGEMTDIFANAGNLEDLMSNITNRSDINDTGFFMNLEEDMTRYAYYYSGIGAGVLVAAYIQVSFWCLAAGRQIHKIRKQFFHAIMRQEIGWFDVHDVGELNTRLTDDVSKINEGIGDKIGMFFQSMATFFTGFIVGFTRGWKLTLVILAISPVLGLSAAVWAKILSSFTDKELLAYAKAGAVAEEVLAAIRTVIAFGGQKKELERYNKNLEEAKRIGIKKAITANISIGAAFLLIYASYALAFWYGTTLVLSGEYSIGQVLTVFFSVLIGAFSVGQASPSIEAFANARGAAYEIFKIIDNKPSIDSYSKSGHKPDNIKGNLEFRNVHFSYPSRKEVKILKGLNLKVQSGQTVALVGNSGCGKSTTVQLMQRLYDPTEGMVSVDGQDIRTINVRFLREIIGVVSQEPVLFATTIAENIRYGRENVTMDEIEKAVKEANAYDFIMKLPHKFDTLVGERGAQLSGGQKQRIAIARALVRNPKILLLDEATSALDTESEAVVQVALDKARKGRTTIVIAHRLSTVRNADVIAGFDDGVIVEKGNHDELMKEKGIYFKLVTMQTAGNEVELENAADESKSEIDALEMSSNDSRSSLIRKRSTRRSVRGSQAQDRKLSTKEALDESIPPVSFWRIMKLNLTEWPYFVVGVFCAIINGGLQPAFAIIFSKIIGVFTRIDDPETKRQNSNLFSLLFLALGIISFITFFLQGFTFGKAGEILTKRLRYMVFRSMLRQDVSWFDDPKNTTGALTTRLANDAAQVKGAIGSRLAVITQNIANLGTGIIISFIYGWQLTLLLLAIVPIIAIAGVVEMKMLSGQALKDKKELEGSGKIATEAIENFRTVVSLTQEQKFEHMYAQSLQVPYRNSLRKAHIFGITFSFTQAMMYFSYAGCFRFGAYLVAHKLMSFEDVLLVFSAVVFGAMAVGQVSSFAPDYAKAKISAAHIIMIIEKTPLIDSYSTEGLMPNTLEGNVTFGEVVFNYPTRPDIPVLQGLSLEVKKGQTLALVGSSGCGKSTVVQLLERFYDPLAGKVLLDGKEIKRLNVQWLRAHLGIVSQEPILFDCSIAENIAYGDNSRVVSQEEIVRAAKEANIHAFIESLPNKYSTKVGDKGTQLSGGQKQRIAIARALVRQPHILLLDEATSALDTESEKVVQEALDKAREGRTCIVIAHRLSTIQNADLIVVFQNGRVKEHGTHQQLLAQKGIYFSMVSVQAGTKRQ

[2] = biological target: T1, ATP-dependent translocase ABCB1; assay: Inhibition of human MDR1 transfected in multi-drug resistant mouse L5178Y cells assessed as fluorescence activity ratio at 2 uM incubated for 10 mins by rhodamine 123 accumulation assay; type: cell-based
L5178Y [3] = assay: Induction of apoptosis in multi-drug resistant mouse L5178Y cells transfected with human MDR1 assessed as cell death at 2 uM after 1 hr by Annexin V-FITC/propidium iodide staining-based flow cytometry (reference value: 0.09%); type: functional
L5178Y [4] = assay: Induction of apoptosis in mouse L5178Y cells assessed as late apoptosis/necrosis at 2 uM after 1 hr by Annexin V-FITC/propidium iodide staining-based flow cytometry (reference value: 0.859%); type: functional
L5178Y [5] = assay: Induction of apoptosis in mouse L5178Y cells assessed as early apoptosis at 2 uM after 1 hr by Annexin V-FITC/propidium iodide staining-based flow cytometry (reference value: 3.96%); type: functional
L5178Y [6] = assay: Induction of apoptosis in mouse L5178Y cells assessed as cell death at 2 uM after 1 hr by Annexin V-FITC/propidium iodide staining-based flow cytometry (reference value: 0.191%); type: functional
L5178Y [7] = assay: Induction of apoptosis in multi-drug resistant mouse L5178Y cells transfected with human MDR1 assessed as early apoptosis at 2 uM after 1 hr by Annexin V-FITC/propidium iodide staining-based flow cytometry (reference value: 6.46%); type: functional
[8] = biological target: T1, ATP-dependent translocase ABCB1; assay: Inhibition of human MDR1 transfected in multi-drug resistant mouse L5178Y cells assessed as fluorescence activity ratio quotient at 20 uM incubated for 10 mins by rhodamine 123 accumulation assay relative to verapamil; type: cell-based; parameters: scale not given: the % may be the effect or the level left
L5178Y [9] = assay: Cytotoxicity against multi-drug resistant mouse L5178Y cells assessed as growth inhibition after 72 hrs by MTT assay; type: functional, cell-based
L5178Y [10] = assay: Induction of apoptosis in multi-drug resistant mouse L5178Y cells transfected with human MDR1 assessed as late apoptosis/necrosis at 2 uM after 1 hr by Annexin V-FITC/propidium iodide staining-based flow cytometry (reference value: 2.28%); type: functional
[11] = biological target: T1, ATP-dependent translocase ABCB1; assay: Inhibition of human MDR1 transfected in multi-drug resistant mouse L5178Y cells assessed as fluorescence activity ratio at 20 uM incubated for 10 mins by rhodamine 123 accumulation assay; type: cell-based
L5178Y [12] = assay: Cytotoxicity against mouse L5178Y cells assessed as growth inhibition after 72 hrs by MTT assay; type: functional, cell-based
[13] = biological target: T1, ATP-dependent translocase ABCB1; assay: Inhibition of human MDR1 transfected in multi-drug resistant mouse L5178Y cells at 2 uM incubated for 10 mins by rhodamine 123 accumulation assay relative to verapamil; type: cell-based
[14] = biological target: T1, ATP-dependent translocase ABCB1; assay: Inhibition of human MDR1 transfected in multi-drug resistant mouse L5178Y cells at 20 uM incubated for 10 mins by rhodamine 123 accumulation assay relative to verapamil; type: cell-based
L5178Y [15] = assay: Ratio of induction of apoptosis in mouse L5178Y cells to multi-drug resistant mouse L5178Y cells transfected with human MDR1; type: functional
L5178Y [16] = assay: Induction of apoptosis in mouse L5178Y cells assessed as late apoptosis/necrosis at 20 uM after 1 hr by Annexin V-FITC/propidium iodide staining-based flow cytometry (reference value: 0.859%); type: functional
L5178Y [17] = assay: Induction of apoptosis in mouse L5178Y cells assessed as cell death at 20 uM after 1 hr by Annexin V-FITC/propidium iodide staining-based flow cytometry (reference value: 0.191%); type: functional
L5178Y [18] = assay: Induction of apoptosis in multi-drug resistant mouse L5178Y cells transfected with human MDR1 assessed as cell death at 20 uM after 1 hr by Annexin V-FITC/propidium iodide staining-based flow cytometry (reference value: 0.09%); type: functional
L5178Y [19] = assay: Induction of apoptosis in mouse L5178Y cells assessed as early apoptosis at 20 uM after 1 hr by Annexin V-FITC/propidium iodide staining-based flow cytometry (reference value: 3.96%); type: functional
L5178Y [20] = assay: Induction of apoptosis in multi-drug resistant mouse L5178Y cells transfected with human MDR1 assessed as early apoptosis at 20 uM after 1 hr by Annexin V-FITC/propidium iodide staining-based flow cytometry (reference value: 6.46%); type: functional
L5178Y [21] = assay: Induction of apoptosis in multi-drug resistant mouse L5178Y cells transfected with human MDR1 assessed as late apoptosis/necrosis at 20 uM after 1 hr by Annexin V-FITC/propidium iodide staining-based flow cytometry (reference value: 2.28%); type: functional

Structure (SMILES)	Activity [1]	Ratio [2]	Activity (L5178Y [3])	Activity (L5178Y [4])	Activity (L5178Y [5])	Activity (L5178Y [6])	Activity (L5178Y [7])	Activity [8]	IC50 (L5178Y [9])	Activity (L5178Y [10])	Ratio [11]	IC50 (L5178Y [12])	fold change (FC) [14]	other results
NC(=O)C[Se]C(=O)c1ccccc1	3.04%	1.02	0.33%	2.24%	2.46%	0.081%	3.01%	3.72%	36.4 µM	2.91%	1.05	> 100 µM		
O=C1[Se]C(=O)c2ccccc21	157.4%	43.14	0.47%	53.9%	31.5%	0.767%	32.2%	356.2%	4.65 µM	45%	97.61	3.97 µM	1.7	fold change (FC) [13]: 1.6
COC(=O)C[Se]C(=O)c1ccc(Cl)cc1	30.28%	6.45	0.03%	2.52%	5.09%	0.497%	2.69%	23.54%	87.8 µM	1.47%	8.53	> 100 µM		
O=C(C[Se]C(=O)c1ccccc1)Oc1ccccc1	3.05%	0.65	0.16%	2.11%	3%	0.24%	3.9%	2.37%	> 100 µM	2.26%	5.68	> 100 µM		
CC(=O)C[Se]C(=O)c1ccc(Cl)cc1	343.79%	94.2	7.66%	52.7%	30.8%	0.874%	3.86%	308.91%	1.03 µM	85.8%	84.64	0.78 µM	1.7	fold change (FC) [13]: 1.6
CC(C)(C)C(=O)C[Se]C(=O)c1ccc(Cl)cc1	33.87%	9.28	1.21%	56.1%	36.1%	0.255%	15.9%	177.63%	0.43 µM	21.9%	48.67	0.94 µM	1.7	Ratio (L5178Y [15]): 2
COc1cc(OC)cc(C(=O)[Se]CC(=O)C(C)(C)C)c1	45.84%	12.56	0.51%	66.6%	15.7%	0.167%	16.6%	169.16%	0.97 µM	30.5%	46.35	1.31 µM	1.7	Ratio (L5178Y [15]): 2
C[Se]C(=O)c1ccc(C(=O)[Se]C)cc1	18.64%	3.97	0.37%	2.01%	3.61%	0.11%	3.01%	14.49%	> 100 µM	3.25%	3.09	> 100 µM		
C[Se]C(=O)c1cccc(C(=O)[Se]C)c1	2.78%	0.93	0.45%	3.79%	4.47%	0.076%	4.35%	3.39%	> 100 µM	2.8%	0.98	> 100 µM		
C[Se]C(=O)c1cccc(C(=O)[Se]C)n1	3.98%	1.13	0.24%	7.18%	5.97%	0.202%	5.38%	5.44%	16.9 µM	3.28%	1.49	19.5 µM		
C[Se]C(=O)c1ccc(C(=O)[Se]C)s1	3.61%	0.99	0.3%	6.93%	6.64%	0.352%	5.07%	3.19%	> 100 µM	2.34%	1.07	> 100 µM		
c1ccc2c(c1)Nc1c(ccc3ccccc13)S2														Activity (L5178Y [16]): 5.58%; Activity (L5178Y [17]): 0.279%; Activity (L5178Y [18]): 0.12%; Activity (L5178Y [19]): 51.2%; Activity (L5178Y [20]): 47.9%; Activity (L5178Y [21]): 45.7%
CSc1ccc2c(c1)N(CCC1CCCCN1C)c1ccccc1S2 (stereo not drawn) [THIORIDAZINE]									7.43 µM			12.7 µM		
